In patent US5382586A, “Aryl (or heteroaryl)piperazinylalkylazole derivatives, their preparation and their application as medicaments” (priority 1991, dated 1995):

How the values were obtained:
[1] = system: conditioned avoidance response in male Wistar rats; experiment: conditioned avoidance response test (inhibition of the conditioned avoidance response; anxiolytic/tranquillising activity); type: in vivo, rat (male Wistar); conditions: D = 80 mg/kg, p.o.; rat; 45 min before test
Experimental: Male Wistar rats weighing 200 grammes which have been trained to jump over a barrier in an avoidance and escape cage (shuttle box) (Letica, reference LI 910 and LI 2700) within 30 seconds of their being introduced into the cage are used in this test.
The products having an anxiolytic or tranquillising activity suppress the conditioned avoidance response.
Training: day one: 11 trials at 3 minute intervals. Electric shock to the paws after 30 seconds (5 mA, 0.1 s, 10 s).
Days two and three: 2 trials per day, with the selected rats only [sum of the scores for the first day (with the exception of the first trial)>14].
Test day: groups formed by selected rats. Oral administration of the product or the vehicle 45 minutes before the start of the study.

[2] = system: norepinephrine-induced death in rats; experiment: norepinephrine antagonism test in rats (antihypertensive activity); type: in vivo, rat (male Wister); conditions: for Activity % (norepinephrine antagonistic antihypertensive activity): D = 40 mg/kg, i.p., rat, norepinephrine 1.25 mg/kg i.v. after 2 hours; for ED50: Rattus norvegicus, ip, 2 h, read-out: ED50 (norepinephrine antagonistic antihypertensive activity)
Experimental: This activity is manifested by the protection of animals before death induced by an intravenous injection of norepinephrine, which produces a hypertensive attack in rats.
Male Wister rats weighing 200 grammes are used in this test. The product to be studied is administered intraperitoneally and 1.25 mg/kg (i.v.) of norepinephrine are administered after 2 hours.
The initial administration dose in these studies is 40 mg/kg (i.p.).

[3] = system: immobility of mice; experiment: desperate behaviour test (antidepressant activity); type: in vivo, mouse; conditions: 30 mg/kg, i.p.; p < 0.05; control 118 s
Experimental: The desperate behaviour test in mice, described by R. D. Porsolt et al. (Arch. Int. Pharmacodyn. 1977, 229, 327-336), is used.
The animals are placed for 6 minutes in a cylinder containing water, from which they are not able to escape. The period of immobility between minutes 2 and 5 is determined for groups of 10 mice per dosage tested.
The product studied is administered i.p. 1 hour before the test. In this test the immobility of the animals is explained as being produced by their depressed state resulting from being faced with an adverse and insoluble situation in a hostile environment such as water.
In our test imipramine (30 mg/kg; i.p.) was used as reference product.

[4] = system: familiarisation process in mice; experiment: light box/dark box test: familiarisation process (improvement of cognition); type: in vivo, mouse
Source text: The influence of this product on the familiarisation process of mice in the light box/dark box test described by J. M. Barnes et al., (Pharmacol. Biochem. Behav., 1990, 35, 955-962) is studied. On the one hand, the effect on learning (the speed of familiarisation) and on the other hand the capacity for blocking contrary effects produced by escopolamine are studied.
The mouse is placed in the light zone of a box divided into two compartments, one brightly illuminated, the light box, and the other with little illumination, the dark box.
1) The number of times the mouse stands up on the hind paws in each compartment during a 5 minute period is counted (see Column 1 of the table below).
2) The activity in each compartment is given by counting the number of crossings through the squares which form the divisions of each compartment (see Column 2 of the table below).
3) The time passed in the dark box during the 5 minute counting period is determined (see Column 3 of the table below).
4) The initial latent period is determined, that is to say the time which elapses after the animal is placed in the light box, at the start of the test, before it enters the dark box (see Column 4 of the table below).
Two treatments with the vehicle are administered to the control animals per day. Two doses of 0.00001 ng/kg p.o. of compound 42 are administered per day to the animals treated with this product. The same operation is repeated daily for 5 days.
The animals learn to remain in the dark box for a longer period and to go into the box more rapidly.
On day six escopolamine (2×0.25 mg/kg, i.p.) is administered.
They recover the learned habit on day seven.

[5] = day 6, after 2 treatments with escopolamine (0.25 mg/kg, i.p.), Example 42 at 0.00001 ng/kg p.o. twice per day

SMILES	Activity % (inhibition of the conditioned avoidance response) [1] [%]	Activity % (norepinephrine antagonistic antihypertensive activity) [2] [%]	ED50 [2] [mg/kg]	other results
Cc1nc(Cl)c(Cl)n1CCCCN1CCN(c2ccccc2Cl)CC1 [Example 38]	78	100	1.3	
Clc1cccc(N2CCN(CCCCn3cc(Cl)cn3)CC2)c1 [Example 39]	100	0		
Cn1ccnc1N1CCN(CCCCn2cccn2)CC1 [Example 40]	28	0		
COc1ccccc1N1CCN(CCn2cc(Cl)cn2)CC1 [Example 41]	52	75	5	
Clc1cnn(CCCCN2CCN(c3nsc4ccccc34)CC2)c1 [Example 43]	100	66		
Cc1nc(Cl)c(Cl)n1CCCCN1CCN(c2nsc3ccccc23)CC1 [Example 44]	95	100		
COc1ccccc1N1CCN(CCCNc2cc(C)nn2C)CC1 [Example 45, 1,3-dimethyl-5-{3-[4-(2-methoxyphenyl)-1-piperazinyl]-propylamino}-1H-pyrazole]	100	100	2.8	
CN(C)CCCN1c2ccccc2CCc2ccccc21 [Imipramine, reference compound]				Period of immobility [3]: 71 s
NC(=O)CN1CCCC1=O [Piracetam, reference compound]				cognition-improving activity ([4]; mice): no activity
CN1C2CC(OC(=O)C(CO)c3ccccc3)CC1C1OC12 (centres unmarked) [escopolamine, reference compound]				effect on the learned behaviour (control group) ([4]; 2×0.25 mg/kg, i.p., day six): the animals of the control group "forget" the learned behaviour; Activity within 5 min. period, dark (D) [4, 5]: 30; Activity within 5 min. period, light (L) [4, 5]: 67; Latent period L-D [4, 5]: 21; No. of times standing erect within 5 min period, dark (D) [4, 5]: 38; No. of times standing erect within 5 min period, light (L) [4, 5]: 59; Time in the box, dark (D) [4, 5]: 27
